{"source": "patent US20250073234A1", "about": "“COMBINATION THERAPIES INCLUDING PARP1 INHIBITORS” (Cornell University, priority 2022, published 2025)", "key": {"[1]": {"test_system": "bone marrow stromal cells", "assay": "qPCR in mouse bone marrow stromal cells", "format": "cell-based", "description": "Total RNA from mouse tissues, cells and cultured organoids was extracted using the TRIZOL reagent (Invitrogen) and the RNeasy Mini Kit (QIAGEN), followed by DNase treatment. After quantification using a Nanodrop 1000 spectrophotometer (Thermo Scientific), RNA was either processed for RNA-seq or reverse-transcribed using random primers and MultiScribe Reverse Transcriptase (Applied Biosystems). Gene expression was analyzed by amplifying 20 ng of the complementary DNA using the CFX96 Real Time PCR Detection System with SYBR Green Master Mix (BioRad) and primers described in Table S1. The amplification parameters were set at 95° C. for 30 seconds, 58° C. for 30 seconds, and 72° C. for 30 seconds (40 cycles total). Gene expression values for each sample were normalized to the 18s RNA."}, "[2]": {"test_system": "PC3 + WPMY-1 tumors", "assay": "Subcutaneous xenograft co-implantation of PC3 and WPMY-1 cells in NSG mice", "format": "in vivo, mouse", "conditions": "Olaparib 40 mg/kg i.p. twice a week, 2 weeks", "description": "For mouse xenografts using PC3 PCa cells and sgC or sgAP-1 WPMY-1 stromal cells. 7 weeks old NSG mice were surgical castrated and let androgen levels drop for 10 days. Cells were trypsinized washed two times in PBS and resuspend in DMEN. 1×10^6 PC3 and 1×10^6 sgC or sgAP1-A WPMY-1 for each mouse were resuspended in 100 μl DMEM: Matrigel (1:1) and injected subcutaneously into both flanks of immunocompromised NSG mice (PC3+sgC WPMY-1 n=4; PC3+sgAP-1 WPMY-1 n=4). Tumors were allowed to grow for 1 month. Mice were euthanized and tumors were collected and analyzed histologically. For Olaparib treatment in mouse xenografts. PC3 PCa cells and WPMY-1 stromal cells were trypsinized washed two times in PBS and resuspend in DMEN. 1×10^6 PC3 and 1×10^6 WPMY-1 for each mouse were resuspended in 100 μl DMEM: Matrigel (1:1) and injected subcutaneously into both flanks of immunocompromised NSG mice. Tumors were allowed to grow for 14 days, and mouse were randomly divided to receive vehicle, n=10, Olaparib (40 mg/kg, 2 days each week, i.p.), n=10 or Olaparib (40 mg/kg, 2 days each week, i.p.)+_PEGPH20 (0.0375 mg/Kg, 2 days each week, retroorbital injection) n=10. Tumors were measured twice a week. Mice were euthanized 14 days after the initiation of the treatment and tumors were collected and analyzed histologically. For Olaparib treatment in mice, 13 weeks-old male TRAMP^+, n=18, were randomly distributed to receive vehicle, n=9, or Olaparib (40 mg/kg/, 5 days each week, i.p.), n=9. Mice were euthanized 1 month after the initiation of the treatment. Prostate and other organs were collected and analyzed histologically.\nTissues from indicated mice were isolated, fixed in zinc buffered formalin overnight at 4° C., dehydrated, and embedded in paraffin. Sections (5 μm) were stained with hematoxylin and eosin (H&E). For immunohistochemistry, sections were deparaffinized, rehydrated, and then treated for antigen retrieval. […] Stained sections were analyzed with a Zeiss light microscope supplemented with Zen 3.3 Bule edition software."}, "[3]": {"test_system": "tumor-invaded lymph nodes and bones", "assay": "Castrated TRAMP+/FVB mice, IHC of metastatic lymph nodes and bone", "format": "in vivo, mouse", "conditions": "for αSMA expression and HA deposition in metastatic lymph nodes: 3 weeks", "description": "Tissues from indicated mice were isolated, fixed in zinc buffered formalin overnight at 4° C., dehydrated, and embedded in paraffin. Sections (5 μm) were stained with hematoxylin and eosin (H&E). For immunohistochemistry, sections were deparaffinized, rehydrated, and then treated for antigen retrieval. After blocking in Protein Block Serum-Free solutions (DAKO), tissues were incubated with primary antibody overnight at 4° C. followed by incubation with biotinylated secondary antibody. Endogenous peroxidase was quenched in 3% H2O2 in water for 10 minutes at room temperature. Antibodies were visualized with avidin-biotin complex (Vectastain Elite; Vector Laboratories) using diaminobenzidine as the chromogen. Stained sections were analyzed with a Zeiss light microscope supplemented with Zen 3.3 Bule edition software.\nFor Olaparib treatment in mice, 13 weeks-old male TRAMP^+/FVB were surgical castrated, after 10 days n=16, were randomly distributed to receive vehicle, n=8, or Olaparib n=8 (5 mg/kg/, 5 days each, i.p.). Mice were euthanized 3 weeks after the initiation of the treatment. Prostate and other organs were collected and analyzed histologically."}}, "note": "Read-outs that look alike come from different tables or passages of the source.", "data": [{"smiles": "O=C(c1cc(Cc2n[nH]c(=O)c3ccccc23)ccc1F)N1CCN(C(=O)C2CC2)CC1", "note": "[Olaparib]", "values": [{"measurement": "markers of stromal activation (Acta2, Has2)", "setting": "[1]; cells isolated from in vivo treated mice, 40 mg/kg", "result": "enhanced expression of markers of stromal activation"}, {"measurement": "markers of TGFβ family (Tgfb3, Tgfb2) and Has3", "setting": "[1]; in vitro, Olaparib 10 μM, 96 h", "result": "increased expression of markers of TGFβ family"}, {"measurement": "desmoplastic response (collagen, HA, aSMA, p62)", "setting": "[2]", "result": "strong desmoplastic response"}, {"measurement": "tumor growth (weight, volume)", "setting": "[2]", "result": "efficiently reduced tumor growth"}, {"measurement": "HA in bone marrow stromal cells and growth plate", "setting": "[3]", "result": "increased HA deposition in the growth plate and stromal areas"}, {"measurement": "αSMA expression and HA deposition in metastatic lymph nodes", "setting": "[3]", "result": "increased stromal content upon Olaparib treatment"}, {"measurement": "αSMA expression and HA deposition in metastatic lymph nodes", "setting": "[3]; listed as Ola", "result": "increased «SMA expression and higher hyaluronan (HA) deposition"}, {"measurement": "HA in bone marrow stromal cells and growth plate", "setting": "[3]; listed as Ola", "result": "higher levels of HA"}]}]}
